From patent US10174029B2, “Pyrimidine-2,4-diamine derivatives for treatment of cancer” (THOMAS HELLEDAYS STIFTELSE FOR MEDICINSK FORSKNING, priority 2012, dated 2019)

Target: MTH1 (Homo sapiens, UniProt P36639)
Experiment: MTH1 enzymatic assay and IC50 value determination (malachite green)
Type: biochemical
Conditions: MTH1 4.8 nM, dGTP 100 μM, 15 minutes at 22° C.; group: less than 200 nM
Procedure, shortened: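 Malachite green detection of Pi after coupling dGTP hydrolysis to excess E. coli pyrophosphatase; 4.8 nM MTH1, 100 μM dGTP in Tris-acetate buffer with Mg2+ and DTT, 1% DMSO, 15 min at 22 °C. 12-point 1:3 compound series; absorbance at 630 nm; IC50 by four-parameter nonlinear regression.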

Row | IC50 | Structure (SMILES)
1 | < 200 nM | COc1cccc(NCCNc2cc(-c3cccc(C)c3C)nc(N)n2)c1 [Example 447, 6-(2,3-dimethylphenyl)-4-N-{2-[(3-methoxyphenyl)amino]ethyl}pyrimidine-2,4-diamine]
2 | < 200 nM | Cc1cccc(-c2cc(NCCNc3ccc(Br)cn3)nc(N)n2)c1C [Example 451, 4-N-{2-[(5-bromopyridin-2-yl)amino]ethyl}-6-(2,3-dimethylphenyl)pyrimidine-2,4-diamine]
3 | < 200 nM | Cc1noc(C)c1-c1cc(NCCc2ccc(Cl)cc2)nc(N)n1 [Example 453, 4-N-[2-(4-chlorophenyl)ethyl]-6-(dimethyl-1,2-oxazol-4-yl)pyrimidine-2,4-diamine]
4 | < 200 nM | Cc1cccc(-c2cc(NCCNc3cccnc3)nc(N)n2)c1C [Example 454, 6-(2,3-dimethylphenyl)-4-N-{2-[(pyridin-3-yl)amino]ethyl}pyrimidine-2,4-diamine]
